Source: publication PMC10403574, “Discovery of a pyrrole-pyridinimidazole derivative as novel SIRT6 inhibitor for sensitizing pancreatic cancer to gemcitabine” (Cell Death & Disease, 2023)

Legend:
SIRT5 = SIRT5 (Homo sapiens, UniProt Q9NXA8); assay: Deacetylation activity selectivity, SIRT5; type: biochemical
Procedure: (§1) Fluor-De-Lys (FDL) assays were used for the examination of the deacetylation activities of sirtuins as described previously. For the detection of SIRT6 activity, the 50-μL reaction mixture contained 5 μM SIRT6, 2.5 mM NAD^+ (β-Nicotinamide adenine dinucleotide hydrate, Sigma, N1636), 75 μM RHKK-Ac-AMC (GL Biochem, Shanghai), compounds/DMSO, and assay buffer. The reactions were incubated at 37 °C for 2 h, added 50 μL stop solution (40 mM nicotinamide, 6 mg/mL trypsin) at 25 °C for 30 min. Fluorescence intensity was measured at an excitation wavelength of 360 nm and an emission wavelength of 460 nm. IC50 values were calculated in GraphPad Prism version 8.00.
(§2) Based on the above results, 8a was further investigated in this study. […] To further evaluate the selectivity of 8a for SIRT6, we examined the effect of 8a on the deacetylation activity of other HDAC family members, including HDAC1-HDAC11, SIRT1-SIRT3 and SIRT5. […] Furthermore, to confirm binding of 8a to SIRT6 in cells, we carried out the cellular thermal shift assay (CETSA). The CETSA approach builds on the thermal shift assay concept where ligand binding to its target protein enhances the target protein stability. We observed that the thermal stability of SIRT6 increased after 8a treatment (Figs. 2c, d).

HDAC2 = HDAC2 (Homo sapiens, UniProt Q92769); assay: Deacetylation activity selectivity, HDAC2; type: biochemical
Source text: as §2

HDAC4 = HDAC4 (Homo sapiens, UniProt P56524); assay: Deacetylation activity selectivity, HDAC4; type: biochemical
Source text: as §2

HDAC5 = HDAC5 (Homo sapiens, UniProt Q9UQL6); assay: Deacetylation activity selectivity, HDAC5; type: biochemical
Source text: as §2

HDAC6 = HDAC6 (Homo sapiens, UniProt Q9UBN7); assay: Deacetylation activity selectivity, HDAC6; type: biochemical
Source text: as §2

HDAC8 = HDAC8 (Homo sapiens, UniProt Q9BY41); assay: Deacetylation activity selectivity, HDAC8; type: biochemical
Source text: as §2

[1] = molecular target: T1, SIRT6 mutant (V70A and F86A) (Homo sapiens, UniProt Q8N6T7, F86A/V70A); assay: FDL assay on SIRT6 mutant (V70A and F86A); type: biochemical
T1 construct: The human full-length SIRT6 gene was inserted into the prokaryotic expression vector (pET-28a (+)); inferred from the pET-28a(+) vector and Ni-NTA purification of the wild-type construct); made in house; host or cells: Escherichia coli BL21 (DE3) (inferred from the wild-type protocol)
Procedure: as §1
To explore the interaction mechanism, we performed the molecular docking experiment between SIRT6 (PDB ID: 6QCJ) and 8a. […] 8a mainly formed hydrogen bond with the backbone amino group of D187 and the ribose hydroxyl group of the coenzyme NAD^+, and stabilized the whole system by hydrophobic interactions with key amino acids such as I8, V70, W71, F82 and F86 (Fig. 2g). To verify this binding model, the mutant (V70A and F86A) of SIRT6 was constructed by site mutation. […] Moreover, there were also some other potential binding pockets predicted by molecular docking (data not shown). Based on the prediction, we constructed other two SIRT6 mutants (E140A/R195A and T184A/S191A/P193A/E283A). […]

NIT-1 cells = assay: Cell glucose uptake assay, NIT-1; type: cell-based; conditions: NIT-1, 8a (3.125, 6.25, 12.5 μM) + insulin (100 nM) vs insulin only, 30 min
Procedure: (§3) The NIT-1 and β-TC-6 cells were added to the wells of 12-well plates and incubated overnight. Then the culture medium without FBS was incubated for 6 h, and different concentrations of 8a (3.125, 6.25, 12.5 μM), insulin (100 nM) or their combination were added for 30 min. Glucose uptake was determined using a Glucose Uptake Assay Kit (Jiancheng, Nanjing).

β-TC-6 cells = assay: Cell glucose uptake assay, β-TC-6; type: cell-based; conditions: β-TC-6, 8a (3.125, 6.25, 12.5 μM) + insulin (100 nM) vs insulin only, 30 min
Procedure: as §3

SIRT6 = SIRT6 (Homo sapiens, UniProt Q8N6T7); assay: Fluor-De-Lys (FDL) SIRT6 deacetylation assay; type: biochemical; design: The human full-length SIRT6 gene was inserted into the prokaryotic expression vector (pET-28a (+)); inferred from the pET-28a(+) vector, Ni-NTA purification and Ni-NTA biosensor loading); made in house; host or cells: Escherichia coli BL21 (DE3)
Procedure: The human full-length SIRT6 gene was inserted into the prokaryotic expression vector (pET-28a (+)). The verified recombinant plasmid was transformed into Escherichia coli BL21 (DE3) expression strain and cultured overnight at 37 °C on LB plates supplemented with 50 μg/mL kanamycin. Single colonies were inoculated in fluid kanamycin-containing LB mediums. It was shaken at 160 rpm for 16 h at 37 °C and transferred to kanamycin-containing LB medium at a ratio of 1:100. It was shaken at 160 rpm at 37 °C until the OD600 reached 0.6. The Isopropyl-β-d-thiogalactopyranoside was added to make the final concentration of solution 0.5 mmol/L, cultured for 15 °C and 160 rpm for 24 h.
Bacterial liquid was harvested at 12,000 rpm at 4 °C for 20 min, and then re-suspended in Lysis buffer (20 mmol/L Hepes pH 7.5, 20 mmol/L imidazole, 5% Glycerol, 500 mmol/L NaCl). Cell pellets were disrupted by high-pressure crusher (JNBIO, Guangzhou China) and centrifuged (4 °C, 12000 rpm, for 20 min). Supernatant was collected and purified by FPLC with a 1 mL Ni–NTA Sepharose column (GE Healthcare, Stamford, USA). The SIRT6 protein was eluted at containing 50 mM, 100 mM, 150 mM, 200 mM, and 500 mM imidazole in elution buffer. The purified SIRT6 protein was dialyzed in dialysis buffer (50 mM Tris-HCl, 137 mM NaCl, 2.7 mM KCl, 1 mM MgCl2). The purified SIRT6 protein was analyzed by SDS-PAGE.
as §1

Sequence of SIRT6 (Q8N6T7 whole entry): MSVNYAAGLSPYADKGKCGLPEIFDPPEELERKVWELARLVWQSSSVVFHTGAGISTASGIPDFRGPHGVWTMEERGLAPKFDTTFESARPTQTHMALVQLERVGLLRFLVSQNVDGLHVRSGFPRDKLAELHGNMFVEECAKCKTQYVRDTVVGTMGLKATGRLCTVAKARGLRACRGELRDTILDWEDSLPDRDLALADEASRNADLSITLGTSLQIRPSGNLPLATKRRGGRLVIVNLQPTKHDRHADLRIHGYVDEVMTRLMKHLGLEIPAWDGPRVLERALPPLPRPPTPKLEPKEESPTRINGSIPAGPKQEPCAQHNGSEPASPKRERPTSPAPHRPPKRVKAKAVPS
T1 sequence (Q8N6T7 whole entry V70A/F86A): as the sequence (Q8N6T7 whole entry) above, with V70A, F86A counted along it
Sequence of SIRT5 (Q9NXA8 37-310, species assumed): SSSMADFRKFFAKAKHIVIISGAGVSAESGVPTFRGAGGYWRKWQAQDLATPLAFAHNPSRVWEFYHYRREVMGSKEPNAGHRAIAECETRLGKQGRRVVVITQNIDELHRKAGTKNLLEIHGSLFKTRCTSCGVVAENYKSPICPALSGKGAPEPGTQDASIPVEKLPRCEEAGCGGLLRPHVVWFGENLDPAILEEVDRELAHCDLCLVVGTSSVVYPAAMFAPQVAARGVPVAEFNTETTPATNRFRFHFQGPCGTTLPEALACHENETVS
Sequence of HDAC5 (Q9UQL6 whole entry, species assumed): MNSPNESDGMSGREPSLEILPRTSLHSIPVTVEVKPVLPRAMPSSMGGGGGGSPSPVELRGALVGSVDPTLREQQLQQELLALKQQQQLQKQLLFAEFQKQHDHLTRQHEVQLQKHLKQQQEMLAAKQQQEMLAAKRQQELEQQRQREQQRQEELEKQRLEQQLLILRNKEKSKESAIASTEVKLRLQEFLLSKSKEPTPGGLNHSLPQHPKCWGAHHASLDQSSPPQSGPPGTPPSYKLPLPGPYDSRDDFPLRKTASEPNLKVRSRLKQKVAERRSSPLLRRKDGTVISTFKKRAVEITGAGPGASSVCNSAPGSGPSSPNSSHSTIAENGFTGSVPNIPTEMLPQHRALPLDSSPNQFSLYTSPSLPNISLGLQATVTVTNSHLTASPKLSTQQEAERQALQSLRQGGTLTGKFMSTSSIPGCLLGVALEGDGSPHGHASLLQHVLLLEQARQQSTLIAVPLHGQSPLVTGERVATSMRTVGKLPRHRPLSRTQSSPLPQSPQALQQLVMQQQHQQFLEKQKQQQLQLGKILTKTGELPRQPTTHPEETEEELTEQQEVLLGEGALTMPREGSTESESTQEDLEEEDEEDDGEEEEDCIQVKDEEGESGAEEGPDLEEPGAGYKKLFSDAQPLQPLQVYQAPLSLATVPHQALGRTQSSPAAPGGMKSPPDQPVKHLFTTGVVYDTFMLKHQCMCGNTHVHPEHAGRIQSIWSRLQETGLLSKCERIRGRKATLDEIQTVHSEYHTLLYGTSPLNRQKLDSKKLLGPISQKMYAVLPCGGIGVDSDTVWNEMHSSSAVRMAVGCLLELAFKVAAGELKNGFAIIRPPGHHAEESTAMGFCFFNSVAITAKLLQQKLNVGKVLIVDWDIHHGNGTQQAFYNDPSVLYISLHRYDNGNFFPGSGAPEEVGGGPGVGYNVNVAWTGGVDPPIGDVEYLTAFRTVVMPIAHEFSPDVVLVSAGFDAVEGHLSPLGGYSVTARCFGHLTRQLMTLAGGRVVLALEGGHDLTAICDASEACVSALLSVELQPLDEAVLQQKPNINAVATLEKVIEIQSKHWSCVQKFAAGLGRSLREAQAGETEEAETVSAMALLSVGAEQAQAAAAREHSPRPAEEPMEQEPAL
Sequence of HDAC8 (Q9BY41 whole entry, species assumed): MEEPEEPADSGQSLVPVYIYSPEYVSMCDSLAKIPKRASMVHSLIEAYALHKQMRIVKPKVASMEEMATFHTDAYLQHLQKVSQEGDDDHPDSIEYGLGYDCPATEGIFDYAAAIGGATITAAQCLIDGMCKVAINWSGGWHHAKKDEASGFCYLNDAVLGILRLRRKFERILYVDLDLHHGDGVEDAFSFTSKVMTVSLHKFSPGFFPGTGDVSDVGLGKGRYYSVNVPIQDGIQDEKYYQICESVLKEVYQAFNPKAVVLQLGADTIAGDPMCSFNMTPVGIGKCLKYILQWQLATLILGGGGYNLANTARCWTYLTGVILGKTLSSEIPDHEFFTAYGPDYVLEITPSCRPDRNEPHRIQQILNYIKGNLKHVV
Sequence of HDAC4 (P56524 whole entry, species assumed): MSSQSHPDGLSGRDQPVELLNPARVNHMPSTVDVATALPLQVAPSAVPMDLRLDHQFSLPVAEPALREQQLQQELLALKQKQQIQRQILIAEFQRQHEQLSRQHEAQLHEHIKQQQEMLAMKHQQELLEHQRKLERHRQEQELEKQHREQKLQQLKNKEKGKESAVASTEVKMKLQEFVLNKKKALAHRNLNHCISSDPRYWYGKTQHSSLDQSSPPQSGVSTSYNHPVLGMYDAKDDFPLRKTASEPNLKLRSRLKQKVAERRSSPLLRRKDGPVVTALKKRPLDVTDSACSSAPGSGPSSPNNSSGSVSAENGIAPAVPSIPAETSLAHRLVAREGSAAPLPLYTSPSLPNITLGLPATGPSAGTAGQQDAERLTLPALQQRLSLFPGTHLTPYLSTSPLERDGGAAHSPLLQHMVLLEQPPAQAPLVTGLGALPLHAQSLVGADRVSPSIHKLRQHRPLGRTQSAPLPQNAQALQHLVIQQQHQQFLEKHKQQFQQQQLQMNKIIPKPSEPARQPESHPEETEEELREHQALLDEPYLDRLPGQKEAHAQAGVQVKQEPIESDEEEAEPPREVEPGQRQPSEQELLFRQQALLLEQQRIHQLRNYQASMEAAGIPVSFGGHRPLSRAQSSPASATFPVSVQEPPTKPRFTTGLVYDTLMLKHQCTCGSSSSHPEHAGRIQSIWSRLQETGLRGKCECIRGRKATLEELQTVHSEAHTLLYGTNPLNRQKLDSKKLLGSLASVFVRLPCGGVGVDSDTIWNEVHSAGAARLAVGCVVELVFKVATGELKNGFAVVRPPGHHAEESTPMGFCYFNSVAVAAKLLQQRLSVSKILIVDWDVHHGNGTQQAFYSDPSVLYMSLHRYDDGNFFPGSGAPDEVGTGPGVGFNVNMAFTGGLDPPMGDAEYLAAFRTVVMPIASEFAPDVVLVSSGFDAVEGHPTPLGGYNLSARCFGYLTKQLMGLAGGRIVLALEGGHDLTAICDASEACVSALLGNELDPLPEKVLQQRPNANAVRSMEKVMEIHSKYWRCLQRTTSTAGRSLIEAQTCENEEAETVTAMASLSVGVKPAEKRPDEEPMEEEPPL
Sequence of HDAC6 (Q9UBN7 whole entry, species assumed): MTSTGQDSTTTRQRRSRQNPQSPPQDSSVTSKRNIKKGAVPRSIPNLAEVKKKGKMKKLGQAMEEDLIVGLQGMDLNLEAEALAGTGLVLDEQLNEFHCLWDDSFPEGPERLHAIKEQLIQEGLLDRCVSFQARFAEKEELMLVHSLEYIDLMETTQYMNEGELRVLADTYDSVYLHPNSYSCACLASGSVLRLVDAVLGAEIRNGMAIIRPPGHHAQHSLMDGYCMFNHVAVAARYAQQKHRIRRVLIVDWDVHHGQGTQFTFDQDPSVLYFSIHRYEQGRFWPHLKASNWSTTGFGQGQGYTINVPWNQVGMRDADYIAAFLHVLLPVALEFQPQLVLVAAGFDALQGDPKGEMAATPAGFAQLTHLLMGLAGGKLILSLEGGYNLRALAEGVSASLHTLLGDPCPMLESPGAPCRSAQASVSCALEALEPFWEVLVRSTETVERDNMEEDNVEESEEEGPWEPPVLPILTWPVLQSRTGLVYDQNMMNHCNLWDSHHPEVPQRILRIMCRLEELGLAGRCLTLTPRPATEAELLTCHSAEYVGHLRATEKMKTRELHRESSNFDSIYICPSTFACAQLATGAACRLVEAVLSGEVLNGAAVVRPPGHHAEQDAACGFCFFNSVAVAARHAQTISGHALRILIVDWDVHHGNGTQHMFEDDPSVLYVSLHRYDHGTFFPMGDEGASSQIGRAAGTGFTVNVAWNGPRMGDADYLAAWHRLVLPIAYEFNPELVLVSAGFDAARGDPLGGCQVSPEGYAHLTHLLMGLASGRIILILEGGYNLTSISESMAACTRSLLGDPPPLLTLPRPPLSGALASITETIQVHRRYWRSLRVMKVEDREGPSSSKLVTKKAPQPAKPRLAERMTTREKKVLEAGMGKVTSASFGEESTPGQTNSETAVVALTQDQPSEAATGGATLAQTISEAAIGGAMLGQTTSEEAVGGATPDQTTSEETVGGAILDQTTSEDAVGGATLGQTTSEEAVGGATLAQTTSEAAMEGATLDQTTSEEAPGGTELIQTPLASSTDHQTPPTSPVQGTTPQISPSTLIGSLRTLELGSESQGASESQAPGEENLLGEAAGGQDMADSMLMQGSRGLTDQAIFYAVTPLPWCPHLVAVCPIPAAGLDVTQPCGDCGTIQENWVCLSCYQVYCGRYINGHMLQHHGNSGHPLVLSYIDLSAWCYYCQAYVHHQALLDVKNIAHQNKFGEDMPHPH
Sequence of HDAC2 (Q92769 whole entry, species assumed): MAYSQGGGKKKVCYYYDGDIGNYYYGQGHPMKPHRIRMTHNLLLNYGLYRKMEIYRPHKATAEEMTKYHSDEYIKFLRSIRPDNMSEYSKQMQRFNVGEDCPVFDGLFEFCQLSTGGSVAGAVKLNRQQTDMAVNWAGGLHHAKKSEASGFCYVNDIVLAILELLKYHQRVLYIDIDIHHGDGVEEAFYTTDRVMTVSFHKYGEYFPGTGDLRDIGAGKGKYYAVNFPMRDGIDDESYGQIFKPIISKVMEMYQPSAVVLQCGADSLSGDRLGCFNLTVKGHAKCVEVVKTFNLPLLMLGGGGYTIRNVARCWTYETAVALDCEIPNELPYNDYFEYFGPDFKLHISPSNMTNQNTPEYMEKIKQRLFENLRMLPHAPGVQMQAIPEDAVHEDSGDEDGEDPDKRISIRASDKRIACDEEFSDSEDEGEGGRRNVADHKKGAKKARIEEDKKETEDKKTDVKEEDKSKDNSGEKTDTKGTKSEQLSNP

## Br.CN(C)C(SCCCCCCn1cnc2c(-c3cc(Br)c(Br)[nH]3)nccc21)=[N+](C)C.[Cl-] [Compound 8a]
SIRT5
  IC50: > 200 µM
HDAC2
  IC50: > 200 µM
HDAC4
  IC50: > 200 µM
HDAC5
  IC50: > 200 µM
HDAC6
  IC50: 96.8 ± 1.98 µM
HDAC8
  IC50: 102 ± 2.01 µM
[1]; FDL assay
  IC50: 79 ± 9 µM
[1]; versus wild-type SIRT6
  increase of IC50 to the mutant (V70A and F86A): approximately 10 fold
NIT-1 cells
  glucose uptake: no significant effect
β-TC-6 cells
  glucose uptake: no significant effect
SIRT6
  IC50: 7.46 ± 0.79 µM
SIRT6; fixed concentration of 25 μM, RHKK-Ac-AMC, NI = no inhibition
  Inhibition rate (%): 75.6%
